Format in all cases: cell-based
Experiment [1] has as its system Acinetobacter baumannii ATCC 19606 (non-MDR). Particulars: ATCC 19606. The method, then:
(§1) Each peptide was formulated in PBS buffer prior to testing. Peptides of SEQ ID NO:5 and SEQ ID NO:8 were brought up in 100% DMSO with 0.002% polysorbate-80 at 1.28 mg/mL (40× the highest final test concentration of 32 mcg/mL). Final test concentration of DMSO was 2.5% in the assay at the first dilution for those two compounds.
(§2) Mueller Hinton II broth (MHB II; BD; Lot Nos. 6258541 and 7143896) was used for MIC testing of aerobic organisms. 0.002% polysorbate 80 (P80) was added to the test medium.
(§3) MIC values were determined using a broth microdilution procedure described by CLSI (1, 3). Automated liquid handlers (Multidrop 384, Labsystems, Helsinki, Finland; Biomek 2000 and Biomek FX, Beckman Coulter, Fullerton CA) were used to conduct serial dilutions and liquid transfers.
(§4) To prepare the drug mother plates, which would provide the serial peptide dilutions for the replicate daughter plates, the wells of columns 2-12 of standard 96-well microdilution plates (Costar 3795) were filled with 150 μl of the designated diluent for each row of peptide. The test articles and comparator compounds (300 μl at 40× the highest concentration to be tested) were dispensed into the appropriate wells in column 1. The Biomek 2000 was then used to make 2-fold serial dilutions in the mother plates from column 1 through column 11. The wells of Column 12 contained no drug and served as the organism growth control wells for the assay.
(§5) The daughter plates were loaded with 185 μL per well of MHB II using the Multidrop 384. The daughter plates were completed on the Biomek FX instrument which transferred 5 uL of peptide solution from each well of a mother plate to the corresponding well of each daughter plate in a single step. A standardized inoculum of each test organism was prepared per CLSI methods. The inoculum for each organism was dispensed into sterile reservoirs divided by length (Beckman Coulter), and the Biomek 2000 was used to inoculate the plates. Daughter plates were placed on the Biomek 2000 work surface in reverse orientation so that inoculation took place from low to high drug concentration. The plates were then inoculated with 10 μL of the inoculum resulting in a final cell density of approximately 5×10^5 CFU/mL, per well.
(§6) Plates were stacked 3-4 high, covered with a lid on the top plate, placed in plastic bags, and incubated at 35° C. for 16 to 20 hrs. Following incubation, the microplates were removed from the incubator and viewed from the bottom using a plate viewer. […] The MIC was read and recorded as the lowest concentration of peptide that inhibited visible growth of the organism.

Experiment [2] concerns Enterococcus faecium ATCC 51559 (VRE). The note with it: ATCC 51559. How it is done:
as §1, §2, §3, §4, §5, §6

In experiment [3] the test system is Enterococcus faecalis ATCC 29212 (VSE; QC). Particulars: ATCC 29212. How it is done: as §1, §2, §3, §4, §5, §6
Experiment [4] deals with Klebsiella pneumoniae ATCC BAA-1705 (KPC). Particulars: ATCC BAA-1705. The method, then:
as §1, §2, §3, §4, §5, §6

For experiment [5], the system named is Pseudomonas aeruginosa ATCC BAA-2109 (MDR). The note with it: ATCC BAA-2109. The method, then: as §1, §2, §3, §4, §5, §6
The subject of experiment [6] is Pseudomonas aeruginosa ATCC 27853 (non-MDR; QC). Particulars: ATCC 27853. The method, then: as §1, §2, §3, §4, §5, §6
Experiment [7] relates to Staphylococcus aureus ATCC 43300 (MRSA). Particulars: ATCC 43300. The method, then:
as §1, §2, §3, §4, §5, §6

Experiment [8] has as its system Escherichia coli ATCC BAA-2471 (NDM-1). The note with it: ATCC BAA-2471. The method, then: as §1, §2, §3, §4, §5, §6
For experiment [9], the system named is Escherichia coli ATCC 25922 (QC). The note with it: ATCC 25922. The method, then: as §1, §2, §3, §4, §5, §6
For experiment [10], the system named is Streptococcus pneumoniae ATCC 49619 (QC). Particulars: ATCC 49619. How it is done: as §1, §2, §3, §4, §5, §6
Experiment [11] has as its system Enterococcus faecalis ATCC 700802 (V583 VRE). The note with it: ATCC 700802. The method, then:
as §1, §2, §3, §4, §5, §6

Experiment [12] relates to Staphylococcus aureus ATCC 29213 (MSSA; QC). The note with it: ATCC 29213. How it is done:
as §1, §2, §3, §4, §5, §6

The test system of experiment [13] is Staphylococcus aureus NRS382 (USA100; HA-MRSA). The note with it: USA100. How it is done:
as §1, §2, §3, §4, §5, §6

Experiment [14] concerns Escherichia coli ATCC 35218 (ESBL). Particulars: ATCC 35218. The method, then:
as §1, §2, §3, §4, §5, §6

In experiment [15] the test system is Streptococcus pyogenes ATCC 49399. Particulars: ATCC 49399. The method, then:
as §1, §2, §3, §4, §5, §6

Structures are written as SMILES. Values after ≈ are worked out from the molar mass of the structure shown. Peptide text beside a SMILES is read from it.

A word on the MIC: it is the least concentration at which growth counts as inhibited. For `CC[C@H](C)[C@H](N)C(=O)N[C@@H](CCCNC(=N)N)C(=O)N[C@@H](CCCNC(=N)N)C(=O)N[C@@H](CCCNC(=N)N)C(=O)N[C@@H](CCCNC(=N)N)C(=O)N[C@@H](CCCNC(=N)N)C(=O)N[C@@H](CCCNC(=N)N)C(=O)N[C@H](C(=O)N[C@@H](CCCNC(=N)N)C(=O)N[C@@H](CCCNC(=N)N)C(=O)N[C@@H](CCCNC(=N)N)C(=O)N[C@@H](CCCNC(=N)N)C(=O)N[C@@H](CCCNC(=N)N)C(=O)N[C@@H](CCCNC(=N)N)C(=O)O)[C@@H](C)CC` [SEQ ID NO: 2] (H-IRRRRRRIRRRRRR-OH; N-terminus and C-terminus assumed), the MIC in experiment [1] was 32 µg/mL (≈ 15.1 µM); in [2] it was 16 µg/mL (≈ 7.55 µM); in experiment [3], >32 µg/mL; in [4], >32 µg/mL; in experiment [5] it was 8 µg/mL (≈ 3.78 µM); in experiment [6], >32 µg/mL. The MIC in [7] is 16 µg/mL (≈ 7.55 µM); in [8] it was 32 µg/mL (≈ 15.1 µM); in experiment [9] it was 16 µg/mL (≈ 7.55 µM); in experiment [10], >32 µg/mL; in [11], >32 µg/mL; in experiment [12], 16 µg/mL (≈ 7.55 µM). Also, the values for the MIC in [13], in experiment [14] and in experiment [15] were 8 µg/mL (≈ 3.78 µM), 16 µg/mL (≈ 7.55 µM) and 32 µg/mL (≈ 15.1 µM), respectively.

(Values after US20240115654A1, “INTRAVENOUS ADMINISTRATION OF ENGINEERED ANTIMICROBIAL AMPHIPHILIC PEPTIDES” (priority 2021, published 2024).)
